Test results taken from PubChem BioAssay AID248 (DTP/NCI, 2004).
Where “and” joins values, the source holds several entries; their conditions need not be identical. Equal values may be shown once. Toxic doses and inconclusive results are not listed.

System: L1210 leukemia ip in BDF1 mice, survival T/C
Assay: NCI In Vivo Anticancer Drug Screen. Data for tumor model L1210 Leukemia (intraperitoneal) in B6D2F1 (BDF1) mice
Settings: endpoint: mean survival time, higher = longer survival
In short: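 Value reflects the ratio of survival in compound-treated mice to survival in vehicle-treated controls, with both groups carrying the same transplanted tumor.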

[1] = dose: 25.0 mg/kg/injection, schedule: Q01DX009 (ip), vehicle: Klucel (hydroxypropylcellulose) (HPC)
[2] = dose: 200.0 mg/kg/injection, schedule: Q01DX001 (ip), vehicle: carboxymethylcellulose (CMC)
[3] = dose: 100.0 mg/kg/injection, schedule: Q04DX003 (ip), vehicle: saline with Tween-80
[4] = dose: 200.0 mg/kg/injection, schedule: Q04DX003 (ip), vehicle: saline with Tween-80
[5] = dose: 400.0 mg/kg/injection, schedule: Q04DX003 (ip), vehicle: saline with Tween-80

SMILES: C[CH2][Hg][S]c1nsc([S][Hg][CH2]C)n1
- T/C (dose: 1.56 mg/kg/injection, schedule: Q01DX009 (ip), vehicle: Klucel (hydroxypropylcellulose) (HPC)): 110 % of control
- T/C (dose: 3.12 mg/kg/injection, schedule: Q01DX009 (ip), vehicle: Klucel (hydroxypropylcellulose) (HPC)): 119 % of control
- T/C (dose: 6.25 mg/kg/injection, schedule: Q01DX009 (ip), vehicle: Klucel (hydroxypropylcellulose) (HPC)): 121 % of control
- T/C (dose: 12.5 mg/kg/injection, schedule: Q01DX009 (ip), vehicle: Klucel (hydroxypropylcellulose) (HPC)): 117 % of control
- T/C [1]: 100 % of control

SMILES: CCS(=O)(=O)C(Br)CBr (stereo unspecified)
- T/C [1]: 100 % of control
- T/C (dose: 50.0 mg/kg/injection, schedule: Q01DX009 (ip), vehicle: Klucel (hydroxypropylcellulose) (HPC)): 114 % of control
- T/C (dose: 100.0 mg/kg/injection, schedule: Q01DX009 (ip), vehicle: Klucel (hydroxypropylcellulose) (HPC)): 105 % of control
- T/C (dose: 100.0 mg/kg/injection, schedule: Q04DX002 (ip), vehicle: Klucel (hydroxypropylcellulose) (HPC)): 103 % of control
- T/C (dose: 200.0 mg/kg/injection, schedule: Q04DX002 (ip), vehicle: Klucel (hydroxypropylcellulose) (HPC)): 95 % of control

SMILES: CCOc1nc(N)nc(N)c1-c1ccccc1
- T/C (dose: 100.0 mg/kg/injection, schedule: Q04DX002 (ip), vehicle: saline with Tween-80): 111 % of control
- T/C (dose: 200.0 mg/kg/injection, schedule: Q04DX002 (ip), vehicle: saline with Tween-80): 96 % of control
- T/C (dose: 400.0 mg/kg/injection, schedule: Q04DX002 (ip), vehicle: saline with Tween-80): 100 % of control

SMILES: CCOc1cc(/C=N\NC(=O)CCCC(=O)N/N=C/c2ccc(O)c(OCC)c2)ccc1O
- T/C [2]: 95 % of control

SMILES: O=C1NC(=O)c2cc([N+](=O)[O-])cc3cccc1c23
- T/C (dose: 100.0 mg/kg/injection, schedule: Q01DX001 (ip), vehicle: saline): 94 % of control
- T/C (dose: 100.0 mg/kg/injection, schedule: Q01DX009 (ip), vehicle: saline sonified): 90 % of control
- T/C (dose: 100.0 mg/kg/injection, schedule: Q04DX003 (ip), vehicle: Klucel (hydroxypropylcellulose) (HPC)): 97 % of control
- T/C (dose: 200.0 mg/kg/injection, schedule: Q01DX001 (ip), vehicle: saline): 97 % of control
- T/C (dose: 200.0 mg/kg/injection, schedule: Q01DX009 (ip), vehicle: saline sonified): 95 % of control
- T/C (dose: 200.0 mg/kg/injection, schedule: Q04DX003 (ip), vehicle: Klucel (hydroxypropylcellulose) (HPC)): 87 % of control
- T/C (dose: 400.0 mg/kg/injection, schedule: Q01DX001 (ip), vehicle: saline): 90 % of control
- T/C (dose: 400.0 mg/kg/injection, schedule: Q01DX009 (ip), vehicle: saline sonified): 88 % of control
- T/C (dose: 400.0 mg/kg/injection, schedule: Q04DX003 (ip), vehicle: Klucel (hydroxypropylcellulose) (HPC)): 86 % of control

SMILES: O=C(Nc1ccc(NC(=O)Nc2cccc(C3=NCCCN3)c2)cc1)Nc1cccc(C2=NCCCN2)c1
- T/C (dose: 6.25 mg/kg/injection, schedule: Q01DX Z (ip), vehicle: carboxymethylcellulose (CMC)): 101 % of control
- T/C (dose: 8.0 mg/kg/injection, schedule: Q01DX Z (oral), vehicle: carboxymethylcellulose (CMC)): 104 % of control
- T/C (dose: 12.5 mg/kg/injection, schedule: Q01DX Z (ip), vehicle: carboxymethylcellulose (CMC)): 102 % of control
- T/C (dose: 16.0 mg/kg/injection, schedule: Q01DX Z (oral), vehicle: carboxymethylcellulose (CMC)): 95 % of control
- T/C (dose: 31.0 mg/kg/injection, schedule: Q01DX Z (oral), vehicle: carboxymethylcellulose (CMC)): 97 % of control
- T/C (dose: 50.0 mg/kg/injection, schedule: Q01DX Z (ip), vehicle: carboxymethylcellulose (CMC)): 157 % of control
- T/C (dose: 62.0 mg/kg/injection, schedule: Q01DX Z (oral), vehicle: carboxymethylcellulose (CMC)): 103 % of control
- T/C (dose: 125.0 mg/kg/injection, schedule: Q01DX Z (oral), vehicle: carboxymethylcellulose (CMC)): 106 % of control
- T/C (dose: 250.0 mg/kg/injection, schedule: Q01DX Z (oral), vehicle: carboxymethylcellulose (CMC)): 105 % of control
- T/C (dose: 500.0 mg/kg/injection, schedule: Q01DX Z (oral), vehicle: carboxymethylcellulose (CMC)): 106 % of control

SMILES: Nc1nc(SCCO)nc2nc[nH]c12
- T/C [3]: 96 % of control
- T/C [4]: 95 % of control
- T/C [5]: 90 % of control

SMILES: CCCC(CCCC(=O)O)C(=O)O (stereo unspecified)
- T/C (dose: 50.0 mg/kg/injection, schedule: Q01DX001 (ip), vehicle: carboxymethylcellulose (CMC)): 86 % of control
- T/C (dose: 100.0 mg/kg/injection, schedule: Q01DX001 (ip), vehicle: carboxymethylcellulose (CMC)): 90 % of control
- T/C [2]: 92 % of control
- T/C (dose: 400.0 mg/kg/injection, schedule: Q01DX001 (ip), vehicle: carboxymethylcellulose (CMC)): 90 % of control

SMILES: CC(O)c1cc(Cl)ccc1Cl (stereo unspecified)
- T/C (dose: 100.0 mg/kg/injection, schedule: Q01DX009 (ip), vehicle: saline with Tween-80): 87 % of control
- T/C [3]: 101 % of control and 107 % of control
- T/C (dose: 200.0 mg/kg/injection, schedule: Q01DX009 (ip), vehicle: saline with Tween-80): 103 % of control
- T/C [4]: 107 % of control
- T/C (dose: 400.0 mg/kg/injection, schedule: Q01DX009 (ip), vehicle: saline with Tween-80): 92 % of control
- T/C [5]: 98 % of control and 92 % of control
